Patent publication US7115623B2, “PDE IV inhibitors” (Aska Pharmaceuticals Co., Ltd., priority 2001, dated 2006)
One block for each compound: values may come before it.

Tests used:
ICR mice = assay: Toxicology study; format: in vivo; conditions: oral 300 mg/10 ml/kg
Experimental: Each Compound (Example Nos. 7 and 8) was administered orally to ICR mice (7 animals per group) as a test compound. […] Each test compound was suspended in 0.5% CMC—Na solution and given orally to the animal at a dose of 300 mg/10 ml/kg.

[1] = tested on: actively sensitized guinea pigs; assay: Inhibition of antigen-induced immediate asthmatic response (airway resistance, Konzett-Rossler method); format: in vivo, Male Hartley outbred guinea pigs; conditions: orally, 60 minutes prior to antigen-challenge, ovalbumin-sensitized guinea pigs, Probit method; for ED50: Cavia porcellus
Experimental: Male Hartley outbred guinea pigs were sensitized by administering intraperitoneally physiological saline (0.5 ml) containing ovalbumin (1 mg, antigen) and 5×10^9 inactivated Bordetella pertussis dead cells (adjuvant). Eleven to thirteen days after the first sensitization, 0.05 ml of an ovalbumin solution (1 mg/ml) (ovalbumin is dissolved in physiological saline) was administered to the lateroabdominal region of each guinea pig intracutaneously. An establishment of sensitization was checked relying on cutaneous reaction. Only guinea pigs wherein significant reddening responses occurred 5 to 10 minutes later were employed in the next measurement test for airway resistance.
The guinea pigs (3 animals per group) actively sensitized in the above step (1) were employed to measure for their airway pressure according to Konzett-Rossler method (Arch. Exp. Path. Pharmakol., 195, 71 (1940)).
Thirteen days after the final sensitization, guinea pigs fasted overnight, and were on the next day anesthetized with a pentobarbital solution (30 mg/1.2 ml/kg, dissolved in physiological saline, intraperitoneal administration). After the guinea pigs were fixed in a supine position, their trachea was incised followed by insertion with one port of a 4-port cannula. Among the remaining 3 ports, 2 ports were connected to an artificial respirator (Model 683, Harvard). The animals were ventilated with 10 ml/kg of air per ventilation at a rate of 60 beats/min via the artificial respirator from the cannula. One port remainder was connected to a respiratory amplifier (AR-601G, Nihon Kohden, Japan) via an airflow resistance tube (TV-241T, Nihon Kohden, Japan) and a differential pressure transducer (TP-602T, Nihon Kohden, Japan) connected with a control box (RY-111S, Nihon Kohden, Japan). From a catheter inserted into a left carotid artery, blood pressures were monitored with a blood pressure measurement unit (AP641G, NEC Corp., Japan) via a blood pressure transducer (TP-300T, Nihon Kohden, Japan), and heart rates were recorded on a thermal recorder (WT-685G, Nihon Kohden, Japan), relying on blood pressure pulse waves after being led to a cardiograph unit (AT601G, Nihon Kohden, Japan).
After airway pressure became stable, an ovalbumin solution. (1 mg/ml, dissolved in physiological saline) was administered at a dose of 1 ml/kg via a tube with which the right jugular vein of guinea pigs was cannulated.
Each test compound was suspended in 0.5% CMC—Na solution and administered orally with an oral sound at a dose of 0.03 to 20 mg/2 ml/kg 60 minutes prior to the antigen-challenge. Control groups received only 0.5% CMC—Na solution in an equivalent amount. The pentobarbital-anesthetization and tracheal incision were conducted 30 minutes prior to the antigen-challenge.
Each percent reduction of increase in airway resistance (each test compound-administered group versus control group) was calculated according to the equation given below. ED50 was obtained by Probit method.

[2] = tested on: PDE IV isozymes separated from U937 culture cells; assay: PDE IV inhibition ([3H]-cAMP hydrolysis); format: biochemical; conditions: cAMP 1 μM as substrate, 30° C., 20 minutes, Probit method
Experimental: PDE IV isozymes as used herein were separated from U937 culture cells by using an anion exchange chromatography. Type IV PDE isozyme was admixed with ethylene glycol (EG) to adjust the final EG concentration to 30%, then stored at −20° C. and diluted when used. The enzymatic activity for PDE IV was measured using cAMP as a substrate.
Each test compound was dissolved in DMSO to adjust the final concentration to 1% (2.5 μl/tube). Incubation buffer solution (pH7.5): • Tris-HCl (50 mM), magnesium chloride (6 mM), dithiothreitol (2.5 mM), 5-nucleotidase (4 μg/ml), bovine serum albumin (0.23 mg/ml), and cAMP (1 μM).
A mixture of the aforementioned test compound solution and the buffer solution was incubated at 30° C. for 20 minutes. The reaction was quenched by admixing with 1 ml of anion exchange resin slurry (AG1-X8, 200–400 meshes, chloride form; Bio-Rad) to absorb unreacted substrates. After the reaction stopped, the mixture was centrifuged at 800×g for 10 minutes, and the resulting supernatant was collected with vials in 250 μl aliquots. To each vial was added 5 ml of ACS-II (scintillator, Amersham). The radioactivity was measured with a liquid scintillator counter for [^3H]-adenosine and set as the PDE IV activity.

Male Marshall ferrets = assay: Emetic action; format: in vivo; conditions: oral, observed within 12 hours
Experimental: Male Marshall ferrets (each group consisting of 3 animals) as used herein fasted overnight. On the next day, a suspension of each test compound in 0.5% CMC—Na solution was administered orally to the animals. […] Next, each maximum tolerance dose against emesis was obtained. SB207499 was used for the reference compound in this assay.

TNF-α production = assay: Inhibition of TNF-α production in galactosamine- and LPS-stimulation; format: in vivo, C3H/HeN mice; conditions: Mus musculus; oral, 1 hour before i.v. galactosamine 800 mg/kg and LPS 5 μg/kg; serum TNF-α by ELISA 1 hour later
Experimental: A suspension of each test compound in 0.5% CMC—Na solution was administered orally to C3H/HeN mice at a dose of 0.10 to 10 mg/kg. One hour later, the animals received intravenously galactosamine at a dose of 800 mg/kg and LPS at a dose 5 μg/kg to raise the induction of TNF-α production. One hour later after the galactosamine- and LPS-administration, amounts of TNF-α in serum samples were measured by ELISA.

SMILES: O=c1c(CCCc2cccnc2)cc2cccnc2n1-c1ccc2nsnc2c1 [Example 2, 1-(2,1,3-Benzothiadiazol-5-yl)-3-[3-(pyridin-3-yl)propyl]-1,8-naphthyridin-2(1H)-one]
melting point: 173.5 to 174.5 °C

SMILES: O=c1c(CCCc2ccccn2)cc2cccnc2n1-c1ccc2nsnc2c1 [Example 3, 1-(2,1,3-Benzothiadiazol-5-yl)-3-[3-(pyridin-2-yl)propyl]-1,8-naphthyridin-2(1H)-one]
melting point: 169.5 to 170.5 °C

SMILES: CN(C)c1cccc(-n2c(=O)c(CCCc3ccncc3)cc3cccnc32)c1 [Example 9, 1-(3-Dimethylaminophenyl)-3-[3-(pyridin-4-yl)propyl]-1,8-naphthyridin-2(1H)-one]
melting point: 124 to 127 °C

SMILES: CC(=O)Nc1cccc(-n2c(=O)c(CCCc3ccncc3)cc3cccnc32)c1 [Example 10, 1-(3-Acetylaminophenyl)-3-[3-(pyridin-4-yl)propyl]-1,8-naphthyridin-2(1H)-one]
melting point: 200 to 202 °C

SMILES: CC(CCc1cc2cccnc2n(-c2cccc(N)c2)c1=O)c1ccncc1 (centres unmarked) [Example 13, 1-(3-Aminophenyl)-3-[3-methyl-3-(pyridin-4-yl)propyl]-1,8-naphthyridin-2(1H)-one]
melting point: 83 to 91 °C

SMILES: CC(CCc1cc2cccnc2n(-c2cccc(N(C)C)c2)c1=O)c1ccncc1 (centres unmarked) [Example 15, 1-(3-Dimethylaminophenyl)-3-[3-methyl-3-(pyridin-4-yl)propyl]-1,8-naphthyridin-2(1H)-one]
melting point: 148 to 154 °C

SMILES: Nc1cccc(-n2c(=O)c(CCC(O)c3ccncc3)cc3cccnc32)c1 (centres unmarked) [Example 23, 1-(3-Aminophenyl)-3-[3-hydroxy-3-(pyridin-4-yl)propyl]-1,8-naphthyridin-2(1H)-one]
melting point: 209 to 211 °C

SMILES: O=c1c(CCCc2ccncc2)cc2cccnc2n1-c1cccc2nsnc12 [Example 24, 1-(2,1,3-Benzothiadiazol-4-yl)-3-[3-(pyridin-4-yl)propyl]-1,8-naphthyridin-2(1H)-one]
melting point: 191 to 192 °C

SMILES: O=c1c(CCCc2ccncc2)cc2cccnc2n1-c1ccc2nonc2c1 [Example 27, 1-(2,1,3-Benzoxadiazol-5-yl)-3-[3-(pyridin-4-yl)propyl]-1,8-naphthyridin-2(1H)-one]
melting point: 192 to 194 °C

SMILES: Nc1cccc(-n2c(=O)c(CCCc3cc[n+]([O-])cc3)cc3cccnc32)c1 [Example No. 8, 1-(3-Aminophenyl)-3-[3-(1-oxypyridin-4-yl)propyl]-1,8-naphthyridin-2(1H)-one]
Body weight gain (ICR mice): No reduction of body weight gains was observed
Mortality (ICR mice): None of the animals were died
Other parameters (general health conditions) (ICR mice): no abnormality was observed
ED50 [1]: 1.2 mg/kg
IC50 [2]: 0.067 µM
Emetic actions at asthmatic response-inhibitory ED50 level (Male Marshall ferrets; dose = ED50 of Assay Example 2): no observation for emetic actions

SMILES: CC(CCc1cc2cccnc2n(-c2cccc([N+](=O)[O-])c2)c1=O)c1cc[n+]([O-])cc1 (centres unmarked) [Example No. 12, 1-(3-nitrophenyl)-3-[3-methyl-3-(1-oxypyridin-4-yl)propyl]-1,8-naphthyridin-2(1H)-one]
ED50 [1]: 0.21 mg/kg
IC50 [2]: 0.13 µM
melting point: 182.5 to 196.5 °C

SMILES: Nc1cccc(-n2c(=O)c(CCC(=O)c3cc[n+]([O-])cc3)cc3cccnc32)c1 [Example No. 19, 1-(3-Aminophenyl)-3-[3-oxo-3-(1-oxypyridin-4-yl)propyl]-1,8-naphthyridin-2(1H)-one]
Inhibition of Asthmatic response ED50 [1]: 0.38 mg/kg

SMILES: COc1ccc(C2CNC(=O)C2)cc1OC1CCCC1 (centres unmarked) [Rolipram, reference compound]
ED50 [1]: 0.51 mg/kg

SMILES: COc1ccc([C@]2(C#N)CC[C@@H](C(=O)O)CC2)cc1OC1CCCC1 [SB207499, cis-4-cyano-4-[3-(cyclopentyloxy)-4-methoxyphenyl]cyclohexane-1-carboxylic acid, reference compound]
ED50 [1]: 20 mg/kg
ED50 (TNF-α production): 0.9 mg/kg
IC50 [2]: 0.03 µM
Emetic activity at a half of the ED50 dose (Male Marshall ferrets; a half of the ED50 dose of Assay Example 2): elicitation of emetic activity has been found

Now from value to compound, other results behind:

melting point: 175 to 175.5 °C
SMILES: O=c1c(CCCc2cncnc2)cc2cccnc2n1-c1cccc([N+](=O)[O-])c1 [Example 4, 1-(3-Nitrophenyl)-3-[3-(pyrimidin-5-yl)propyl]-1,8-naphthyridin-2(1H)-one]

melting point: 234 to 235 °C
SMILES: O=c1c(CCCc2cccnn2)cc2cccnc2n1-c1cccc([N+](=O)[O-])c1 [Example 5, 1-(3-Nitrophenyl)-3-[3-(pyridazin-3-yl)propyl]-1,8-naphthyridin-2(1H)-one]

melting point: 194 to 195 °C
SMILES: O=c1c(CCCc2cnccn2)cc2cccnc2n1-c1cccc([N+](=O)[O-])c1 [Example 6, 1-(3-Nitrophenyl)-3-[3-(pyrazin-2-yl)propyl]-1,8-naphthyridin-2(1H)-one]

melting point: 235 to 236 °C
SMILES: O=c1c(CCC(O)c2ccncc2)cc2cccnc2n1-c1cccc([N+](=O)[O-])c1 (centres unmarked) [Example 20, 1-(3-nitrophenyl)-3-[3-hydroxy-3-(pyridin-4-yl)propyl]-1,8-naphthyridin-2(1H)-one]

melting point: 69 to 71 °C
SMILES: CC(=O)OC(CCc1cc2cccnc2n(-c2cccc([N+](=O)[O-])c2)c1=O)c1ccncc1 (centres unmarked) [Example 22, 1-(3-Nitrophenyl)-3-[3-acetyloxy-3-(pyridin-4-yl)propyl]-1,8-naphthyridin-2(1H)-one]

melting point: 136 to 137 °C
SMILES: O=c1c(CCCc2ccncc2)cc2cccnc2n1-c1ccc(Cl)c([N+](=O)[O-])c1 [Example 25, 1-(4-Chloro-3-nitrophenyl)-3-[3-(pyridin-4-yl)propyl]-1,8-naphthyridin-2(1H)-one]

IC50 [2]: 0.07 µM
melting point: 154 to 155 °C
SMILES: CC(CCc1cc2cccnc2n(-c2cccc([N+](=O)[O-])c2)c1=O)c1ccncc1 (centres unmarked) [Example No. 11, 1-(3-Nitrophenyl)-3-[3-methyl-3-(pyridin-4-yl)propyl]-1,8-naphthyridin-2(1H)-one]
ED50 [1]: 0.12 mg/kg

IC50 [2]: 0.45 µM
SMILES: O=C(CCc1cc2cccnc2n(-c2cccc([N+](=O)[O-])c2)c1=O)c1ccncc1 [Example No. 17, 1-(3-Nitrophenyl)-3-[3-oxy-3-(pyridin-4-yl)propyl]-1,8-naphthyridin-2(1H)-one]
ED50 [1]: 0.71 mg/kg
